From patent publication US8624027B2, “Combination therapy for treating cancer and diagnostic assays for use therein” (AbbVie Inc., priority 2005, dated 2014)
Where two headings read alike, the source gives them in different places.

Legend:
[1] = system: NCI-H146 human small cell lung carcinoma cells; assay: Cellular efficacy in human tumor cell line (MTS viability assay); type: cell-based; conditions: 10% human serum, 48 hours
Procedure: NCI-H146 (ATCC, Manassas, Va.) human small cell lung carcinoma cells were plated 50,000 cells per well in 96-well tissue culture plates in a total volume of 100 μL tissue culture medium supplemented with 10% human serum (Invitrogen, Carlsbad, Calif.) instead of fetal bovine serum and treated with a 2-fold serial dilution of the compounds of interest from 10 μM to 0.020 μM. Each concentration was tested in duplicate at least 3 separate times. The number of viable cells following 48 hours of compound treatment was determined using the CellTiter 96® AQueous non-radioactive cell proliferation MTS assay according to manufacturer's recommendations (Promega Corp., Madison, Wis.).

[2] = Pharmacokinetic evaluation in rat; type: in vivo; conditions: male, Sprague-Dawley, plasma; for AUC / Cmax: 5 mg/kg, oral; for AUC(0-inf): single 5 mg/kg oral dose, Table 1, read-out: Pharmacokinetic area under the plasma concentration Curve (rat) AUC0-∞
Procedure: The pharmacokinetic behavior of compounds of this disclosure was determined following a single 2 mg/kg intravenous or 5 mg/kg oral dose in male Sprague-Dawley derived rats (n=3 per group). The compounds were prepared as 2 mg/mL solution in a 10% DMSO in PEG-400 formulation for both oral and intravenous administration. The 1 mL/kg intravenous dose was administered as a slow bolus (about 1-2 minutes) in the jugular vein of a rat under light ether anesthetic. The oral dose was administered by gavage. Serial blood samples were obtained from a tail vein of each rat prior 0.1 (IV only), 0.25, 0.5, 1, 1.5, 2, 3, 4, 6, 8 and 24 hours after dosing. The heparinized samples were thoroughly mixed and placed in an ice bath. Plasma was separated by centrifugation and stored frozen prior to analysis.
The compounds of interest were separated from the plasma using protein precipitation with acetonitrile. A plasma (100-200 μL, sample or spiked standard) aliquot was combined with 50 μL of internal standard (structurally related analog prepared in acetonitrile) and 1 ml acetonitrile in a 96-well polypropylene deep well plate. The plates were vortexed for 30 seconds followed by centrifugation (3500 rpm×15 minutes, 4° C.). In an automated manner, the supernatant was transferred to a clean 96-well plate. The samples were evaporated to near dryness on a Micro-Vap™ under a stream of dry nitrogen over low heat (˜37° C.). The samples were reconstituted vortexing with 0.2 mL 5% DMSO in acetonitrile. A 0.1-0.2 ml aliquot of acetonitrile: 0.1% trifluoroacetic acid (20:80, by volume) was added to each well, followed by an additional 30 second vortexing. The plates were centrifuged (3500 rpm×15 minutes, 4° C.) prior to HPLC-MS/MS analysis. Samples were analyzed simultaneously with spiked plasma standards. All samples from each study were analyzed as a single batch on the LC-MS/MS.
The compounds of interest and the internal standard were separated from each other and co-extracted contaminants on a 50×3 mm Keystone Betasil CN 5 μm column with an acetonitrile: 0.1% trifluoroacetic acid mobile phase (50:50, by volume) at a flow rate of 0.7 ml/min. Analysis was performed on a Sciex API 300™ Biomolecular Mass Analyzer using a heated nebulizer interface. Peak areas of the title compounds and internal standards were determined using the Sciex MacQuan™ software. Calibration curves were derived from peak area ratio (parent drug/internal standard) of the spiked rat plasma standards using least squares linear regression of the ratio versus the theoretical concentration. The methods were generally linear over the range of the standard curve (correlation coefficients >0.99) with an estimated quantitation limit of 0.01 μg/mL. The plasma concentration data for each animal were submitted to multi-exponential curve fitting using WinNonlin. The area under the plasma concentration-time curve from 0 to t hours (time of the last measurable plasma concentration) after dosing (AUC0-t) was calculated using the linear trapezoidal rule for the plasma concentration-time profiles. The residual area extrapolated to infinity, determined as the final measured plasma concentration (Ct) divided by the terminal elimination rate constant (β), was added to AUC0-t to produce the total area under the curve (AUC0-∞). Ki values shown in the tables below were determined using Wang's equation (Wang Z X., An Exact Mathematical Expression For Describing Competitive Binding Of Two Different Ligands To A Protein Molecule. FEBS Lett. 1995; 360:111-4)).

Bcl-XL protein = Bcl-XL protein (Homo sapiens, UniProt Q07817); assay: Bcl-XL binding affinity, fluorescence polarization with fluorescein-labeled BAD peptide; conditions: Wang's equation, read-out: Target Binding Affinity Ki (Bcl-XL)
Bcl-2 protein = biological target: T1, Bcl-2 protein (Homo sapiens, UniProt P10415, DELINS35-91DVEENRTEAPEGTESE, form not given); assay: Bcl-2 binding affinity, fluorescence polarization with fluorescein-labeled BAX peptide; conditions: Wang's equation, read-out: Target Binding Affinity Ki (Bcl-2)
T1 construct: fused on or other part: A short piece of the Bcl-xL (Q07817) loop replaces Bcl-2 loop residues 35-91; The C-terminal membrane anchor is absent

[3] = Table 2, read-out: Pharmacokinetic area under the plasma concentration curve (rat) AUC
[4] = Table 2, read-out: Pharmacokinetic peak plasma concentration (rat) Cmax
[5] = NCI-H146, Table 2, read-out: NCI-H146 Cellular Efficacy H146, EC50
[6] = NCI-H146, Table 1, read-out: NCI-H146 Cellular Efficacy EC50
[7] = Table 3, read-out: Pharmacokinetic area under the plasma concentration Curve (rat) AUC
[8] = Table 3, read-out: Pharmacokinetic peak plasma concentration (rat) Cmax
[9] = NCI-H146, Table 3, read-out: NCI-H146 Cellular Efficacy H146 EC50

Sequence of Bcl-XL protein (Q07817 with tags, fused parts or gaps DEL45-84): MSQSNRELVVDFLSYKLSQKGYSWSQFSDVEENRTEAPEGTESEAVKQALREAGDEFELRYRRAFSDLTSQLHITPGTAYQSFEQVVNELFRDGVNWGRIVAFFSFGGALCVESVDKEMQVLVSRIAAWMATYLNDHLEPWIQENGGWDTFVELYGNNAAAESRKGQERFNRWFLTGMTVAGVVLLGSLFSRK
T1 sequence (P10415 with tags, fused parts or gaps with the stated changes): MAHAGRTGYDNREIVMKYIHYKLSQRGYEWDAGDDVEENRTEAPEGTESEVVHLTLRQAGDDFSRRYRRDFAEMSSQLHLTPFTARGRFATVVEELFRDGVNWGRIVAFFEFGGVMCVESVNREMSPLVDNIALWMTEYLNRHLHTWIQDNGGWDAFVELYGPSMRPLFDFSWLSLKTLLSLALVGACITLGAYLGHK

| AUC [2, 3] [µM·h] | Cmax [2, 4] [nM] | EC50 [1, 5] [nM] | AUC(0-inf) [2] [µM·h] | EC50 [1, 6] [nM] | Ki (Bcl-XL protein) [nM] | Ki (Bcl-2 protein) [nM] | AUC [2, 7] [µM·h] | Cmax [2, 8] [nM] | EC50 [1, 9] [nM] | Compound | EC50 ([1]; Table 1, read-out: NCI-H146 Cellular Efficacy EC50) [nM] |
| --- | --- | --- | --- | --- | --- | --- | --- | --- | --- | --- | --- |
| – | – | – | 7.01 | 29.1 | ≤ 1 | ≤ 1 | – | – | – | CC1(C)CCC(CN2CCN(c3ccc(C(=O)NS(=O)(=O)c4ccc(N[C@H](CCN5CCOCC5)CSc5ccccc5)c(S(=O)(=O)C(F)(F)Cl)c4)cc3)CC2)=C(c2ccc(Cl)cc2)C1 [Example 2, 3-((chloro(difluoro)methyl)sulfonyl)-N-(4-(4-((2-(4-chlorophenyl)-4,4-dimethylcyclohex-1-en-1-yl)methyl)piperazin-1-yl)benzoyl)-4-(((1R)-3-(morpholin-4-yl)-1-((phenylsulfanyl)methyl)propyl)amino)benzenesulfonamide] | – |
| – | – | – | 4.13 | 28.8 | ≤ 1 | ≤ 1 | 4.13 | 385 | 29 | O=C(NS(=O)(=O)c1ccc(N[C@H](CCN2CCOCC2)CSc2ccccc2)c(S(=O)(=O)C(F)(F)Cl)c1)c1ccc(N2CCN(CC3=C(c4ccc(Cl)cc4)CCCC3)CC2)cc1 [Example 3, 3-((chloro(difluoro)methyl)sulfonyl)-N-(4-(4-((2-(4-chlorophenyl)-1-cyclohex-1-en-1-yl)methyl)piperazin-1-yl)benzoyl)-4-(((1R)-3-(morpholin-4-yl)-1-((phenylsulfanyl)methyl)propyl)amino)benzenesulfonamide] | – |
| – | – | – | 2.22 | 38.8 | ≤ 1 | ≤ 1 | – | – | – | CC(C)N(C)CC[C@H](CSc1ccccc1)Nc1ccc(S(=O)(=O)NC(=O)c2ccc(N3CCN(CC4=C(c5ccc(Cl)cc5)CCCCC4)CC3)cc2)cc1S(=O)(=O)C(F)(F)F [Example 5, N-(4-(4-((2-(4-chlorophenyl)-1-cyclohepten-1-yl)methyl)piperazin-1-yl)benzoyl)-4-(((1R)-3-(isopropyl(methyl)amino)-1-((phenylsulfanyl)methyl)propyl)amino)-3-((trifluoromethyl)sulfonyl)benzenesulfonamide] | – |
| – | – | – | 0.91 | 1 | ≤ 1 | ≤ 1 | 0.913 | 113 | 10 | O=C(NS(=O)(=O)c1ccc(N[C@H](CCN2C[C@@H]3C[C@H]2CO3)CSc2ccccc2)c(S(=O)(=O)C(F)(F)Cl)c1)c1ccc(N2CCN(CC3=C(c4ccc(Cl)cc4)CCCC3)CC2)cc1 [Example 6, 3-((chloro(difluoro)methyl)sulfonyl)-N-(4-(4-((2-(4-chlorophenyl)cyclohex-1-en-1-yl)methyl)piperazin-1-yl)benzoyl)-4-(((1R)-3-((1S,4S)-2-oxa-5-azabicyclo[2.2.1]hept-5-yl)-1-((phenylsulfanyl)methyl)propyl)amino)benzenesulfonamide] | – |
| – | – | – | 3.87 | 58.9 | ≤ 1 | ≤ 1 | 3.87 | 518 | 59 | O=C(NS(=O)(=O)c1ccc(N[C@H](CCN2CCOCC2)CSc2ccccc2)c(S(=O)(=O)C(F)(F)F)c1)c1ccc(N2CCN(CC3=C(c4ccc(Cl)cc4)CCCC3)CC2)cc1 [Example 7, N-(4-(4-((2-(4-chlorophenyl)cyclohex-1-en-1-yl)methyl)piperazin-1-yl)benzoyl)-4-(((1R)-3-(morpholin-4-yl)-1-((phenylsulfanyl)methyl)propyl)amino)-3-((trifluoromethyl)sulfonyl)benzenesulfonamide] | – |

The next lines start with the compound.

| Compound | AUC [2, 3] [µM·h] | Cmax [2, 4] [nM] | EC50 [1, 5] [nM] | AUC(0-inf) [2] [µM·h] | EC50 [1, 6] [nM] | Ki (Bcl-XL protein) [nM] | Ki (Bcl-2 protein) [nM] | AUC [2, 7] [µM·h] | Cmax [2, 8] [nM] | EC50 [1, 9] [nM] | EC50 ([1]; Table 1, read-out: NCI-H146 Cellular Efficacy EC50) [nM] |
| --- | --- | --- | --- | --- | --- | --- | --- | --- | --- | --- | --- |
| 3-((chloro(difluoro)methyl)sulfonyl)-N-(4-(4-((2-(4-chlorophenyl)-4,4-dimethylcyclohex-1-en-1-yl)methyl)piperazin-1-yl)benzoyl)-4-(((1R)-3-(dimethylamino)-1-((phenylsulfanyl)methyl)propyl)amino)benzenesulfonamide [Example 28] | – | – | – | – | – | – | – | – | – | – | 24.2 |
| CN(C)CC[C@H](CSc1ccccc1)Nc1ccc(S(=O)(=O)NC(=O)c2ccc(N3CCN(Cc4ccccc4-c4ccc(Cl)cc4)CC3)cc2)cc1C(F)(F)F [A, reference compound] | 4.41 | 371 | 1600 | – | – | – | – | – | – | – | – |
| CN(C)CC[C@H](CSc1ccccc1)Nc1ccc(S(=O)(=O)NC(=O)c2ccc(N3CCN(Cc4ccccc4-c4ccc(Cl)cc4)CC3)cc2)cc1[N+](=O)[O-] [B, reference compound] | 0.283 | 39 | 63 | – | – | – | – | – | – | – | – |
| CN(C)CC[C@H](CSc1ccccc1)Nc1ccc(S(=O)(=O)NC(=O)c2ccc(N3CCN(Cc4ccccc4-c4ccc(Cl)cc4)CC3)cc2)cc1C#N [C, reference compound] | 1.92 | 315 | 1810 | – | – | – | – | – | – | – | – |
| CN(C)CC[C@H](CSc1ccccc1)Nc1ccc(S(=O)(=O)NC(=O)c2ccc(N3CCN(Cc4ccccc4-c4ccc(Cl)cc4)CC3)cc2)c(F)c1C(F)(F)F [D, reference compound] | 3.83 | 386 | 7330 | – | – | – | – | – | – | – | – |
| CC(C)N(C)CC[C@H](CSc1ccccc1)Nc1ccc(S(=O)(=O)NC(=O)c2ccc(N3CCN(CC4=C(c5ccc(Cl)cc5)CCC(C)(C)C4)CC3)cc2)cc1S(=O)(=O)C(F)(F)F [Example 4, N-(4-(4-((2-(4-chlorophenyl)-5,5-dimethylcyclohex-1-en-1-yl)methyl)piperazin-1-yl)benzoyl)-4-(((1R)-3-(isopropyl(methyl)amino)-1-((phenylsulfanyl)methyl)propyl)amino)-3-((trifluoromethyl)sulfonyl)benzenesulfonamide] | – | – | – | 6.34 | 58.7 | ≤ 1 | ≤ 1 | – | – | – | – |
| CN(C)CC[C@H](CSc1ccccc1)Nc1ccc(S(=O)(=O)NC(=O)c2ccc(N3CCN(CC4=C(c5ccc(Cl)cc5)CC(C)(C)CC4)CC3)cc2)cc1S(=O)(=O)C(F)(F)Cl [Example 28, 3-((chloro(difluoro)methyl)sulfonyl)-N-(4-(4-((2-(4-chlorophenyl)-4,4-dimethylcyclohex-1-en-1-yl)methyl)piperazin-1-yl)benzoyl)-4-(((1R)-3-(dimethylamino)-1-((phenylsulfanyl)methyl)propyl)amino)benzenesulfonamide] | – | – | – | – | – | ≤ 1 | ≤ 1 | – | – | – | – |
| CN(C)CC[C@H](CSc1ccccc1)Nc1ccc(S(=O)(=O)NC(=O)c2ccc(N3CCN(CC4=C(c5ccc(Cl)cc5)CCCC4)CC3)cc2)cc1[N+](=O)[O-] [G, reference compound] | – | – | – | – | – | – | – | 0.507 | 57 | 26 | – |
| CN(C)CC[C@H](CSc1ccccc1)Nc1ccc(S(=O)(=O)NC(=O)c2ccc(N3CCN(CC4=C(c5ccc(Cl)cc5)CCCC4)CC3)cc2)cc1C(F)(F)F [H, reference compound] | – | – | – | – | – | – | – | 1.97 | 215 | 410 | – |
